Laboratory results as given in paper PMC9502272, “A Metabolomics Approach for Predicting OATP1B-Type Transporter-Mediated Drug–Drug Interaction Liabilities” (Pharmaceutics, 2022).

Key:
[1] = design: method as in ref PMIDs of Table S2 (18321482, 35456528, 28612269, 10997930, 27796539, 23299792, 11129729, 22808947, 12844327); conditions: ref PMIDs of Table S2 (18321482, 35456528, 28612269, 10997930, 27796539, 23299792, 11129729, 22808947, 12844327); cited from earlier work
[2] = molecular target: T1, OATP1B-type transporters (Oatp1b2) (Mus musculus, UniProt Q9JJL3); experiment: Murine pharmacokinetic study: influence of OATP1B inhibitors on plasma CDCA-24G in wild-type mice; type: in vivo; conditions: rifampin 20 mg/kg i.v. or paclitaxel 10 mg/kg i.v.
T1 construct: was performed in wild-type mice and Oatp1b2(−/−) mice; from tissue; host or cells: living wild-type mice (DBA/1LacJ or FVB background); hepatic transporter in vivo
T1 sequence (Q9JJL3 1-689): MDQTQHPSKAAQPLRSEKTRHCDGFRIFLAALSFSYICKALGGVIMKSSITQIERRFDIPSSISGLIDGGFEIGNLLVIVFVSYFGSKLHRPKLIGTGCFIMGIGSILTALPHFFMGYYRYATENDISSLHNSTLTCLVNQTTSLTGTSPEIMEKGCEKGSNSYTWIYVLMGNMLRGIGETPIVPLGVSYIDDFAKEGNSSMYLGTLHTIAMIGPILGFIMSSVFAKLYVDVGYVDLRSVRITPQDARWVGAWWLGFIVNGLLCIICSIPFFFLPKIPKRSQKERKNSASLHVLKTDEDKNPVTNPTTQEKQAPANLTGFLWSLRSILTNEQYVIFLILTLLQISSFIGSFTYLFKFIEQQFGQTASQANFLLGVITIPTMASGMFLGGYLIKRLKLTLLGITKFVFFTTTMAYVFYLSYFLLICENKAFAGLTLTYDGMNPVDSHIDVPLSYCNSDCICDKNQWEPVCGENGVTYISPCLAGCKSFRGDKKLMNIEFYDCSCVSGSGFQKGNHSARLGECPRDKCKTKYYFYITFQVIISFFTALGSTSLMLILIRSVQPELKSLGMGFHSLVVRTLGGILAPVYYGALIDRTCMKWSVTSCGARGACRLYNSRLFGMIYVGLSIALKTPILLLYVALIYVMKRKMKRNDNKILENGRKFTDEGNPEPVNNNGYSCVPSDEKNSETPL
Experimental: In these experiments, serial whole blood samples were collected in heparinized tubes immediately prior to drug administration (pre-dose) and at 0.25, 0.5, 1, 2, and 4 h after administration from the submandibular vein for the initial three time-points, from the retro-orbital sinus vein for the subsequent two time-points, and by cardiac puncture at the terminal time-point. Whole blood samples were centrifuged at 11,000 rpm for 5 min; then, the plasma supernatants were collected and stored at −80 °C until analysis by a validated method based on LC-MS/MS.
An Accucore aQ column (50 × 2.1 mm, dp = 2.6 μm; Thermo Fisher Scientific) was protected by a C18 AQUASIL guard cartridge (2.1 mm × 10 mm, dp = 3 μm; Thermo Fisher Scientific). The injection volume of sample was 5.0 μL. The temperature of the autosampler rack was 4 °C, and the temperature of the column was maintained at 20 °C. The mobile phase was composed of solvent A (2 mmol ammonium acetate in water) and solvent B (100% methanol), and the total run time was 4.6 min. […]
(§1) Pharmacokinetic parameters were derived from non-compartmental analysis using Phoenix WinNonlin version 8.0 (Certara, Princeton, NJ, USA). The peak plasma concentration (Cmax) was determined by visual inspection of the data from the concentration–time curves. […]

OATP1B = conditions: patients, paclitaxel (Taxol) 1 h i.v. infusion, 50 or 100 mg/m^2; dose-dependent
Experimental: An Accucore aQ column (50 × 2.1 mm, dp = 2.6 μm; Thermo Fisher Scientific) was protected by a C18 AQUASIL guard cartridge (2.1 mm × 10 mm, dp = 3 μm; Thermo Fisher Scientific). The injection volume of sample was 5.0 μL. The temperature of the autosampler rack was 4 °C, and the temperature of the column was maintained at 20 °C. The mobile phase was composed of solvent A (2 mmol ammonium acetate in water) and solvent B (100% methanol), and the total run time was 4.6 min. The gradient conditions were as follows: 0–0.5 min, 45% B; 0.5–2.0 min, 45 to 90%, 2.0–4.0 min, 90% B; 4.0–4.6 min, 45% B, delivered at a flow rate of 0.4 mL/min. The MS assay setting with the positive voltage applied to the ESI capillary was set at 3791 V, and the capillary temperatures was 335 °C with a vaporizer temperature of 350 °C. Argon was used as the collision gas at a pressure of 1.5 mTorr. […] The lower limit of quantitation (LLOQ) for both analytes was determined to be 0.5 ng/mL. […]
as §1

OATP1B3 = system: OATP1B3; design: method as in ref PMIDs of Table S2 (18321482, 35456528, 28612269, 10997930, 11129729, 22808947, 12844327); conditions: ref PMIDs of Table S2 (18321482, 35456528, 28612269, 10997930, 11129729, 22808947, 12844327); cited from earlier work
OATP1B1 = molecular target: T2, OATP1B1 (Homo sapiens, UniProt Q9Y6L6); design: method as in ref PMIDs of Table S2 (18321482, 35456528, 28612269, 10997930, 11129729, 22808947, 12844327); conditions: ref PMIDs of Table S2 (18321482, 35456528, 28612269, 10997930, 11129729, 22808947, 12844327); cited from earlier work
T2 construct: expressed in transfected cells; host or cells: HEK293 (ATCC)
T2 sequence (Q9Y6L6 1-691): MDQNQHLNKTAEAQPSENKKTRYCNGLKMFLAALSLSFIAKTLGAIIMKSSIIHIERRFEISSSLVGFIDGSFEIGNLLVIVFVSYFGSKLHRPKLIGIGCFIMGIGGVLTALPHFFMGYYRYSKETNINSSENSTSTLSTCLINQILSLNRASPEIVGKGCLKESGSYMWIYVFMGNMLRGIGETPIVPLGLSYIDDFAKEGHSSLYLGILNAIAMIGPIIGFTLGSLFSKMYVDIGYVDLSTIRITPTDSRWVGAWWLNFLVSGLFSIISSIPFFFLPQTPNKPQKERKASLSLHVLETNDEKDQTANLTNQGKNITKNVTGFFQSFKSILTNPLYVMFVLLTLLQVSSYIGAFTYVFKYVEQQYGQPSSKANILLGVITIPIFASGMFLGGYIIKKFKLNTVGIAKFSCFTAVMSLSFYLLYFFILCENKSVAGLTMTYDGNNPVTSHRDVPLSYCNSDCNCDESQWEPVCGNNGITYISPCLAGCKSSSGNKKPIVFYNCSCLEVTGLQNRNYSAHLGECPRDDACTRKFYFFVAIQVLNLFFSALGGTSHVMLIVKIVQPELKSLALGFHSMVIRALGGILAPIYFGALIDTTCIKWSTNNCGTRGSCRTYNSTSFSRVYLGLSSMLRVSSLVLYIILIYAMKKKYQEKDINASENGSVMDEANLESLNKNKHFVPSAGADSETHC

| Effect on plasma levels of CDCA-24G (OATP1B) | SMILES | Cmax [1] | Effect on circulating levels of CDCA-24G [2] | IC50 (OATP1B3) | IC50 (OATP1B1) |
| --- | --- | --- | --- | --- | --- |
| elevated | CC(=O)O[C@H]1C(=O)[C@@]2(C)[C@H]([C@H](OC(=O)c3ccccc3)[C@]3(O)C[C@H](OC(=O)[C@H](O)[C@@H](NC(=O)c4ccccc4)c4ccccc4)C(C)=C1C3(C)C)[C@]1(OC(C)=O)CO[C@@H]1C[C@@H]2O [Paclitaxel, paclitaxel] | 9.6 µM | transient, statistically significant increase | 0.5 µM | – |
| – | CO[C@H]1/C=C/O[C@@]2(C)Oc3c(C)c(O)c4c(O)c(c(/C=N/N5CCN(C)CC5)c(O)c4c3C2=O)NC(=O)/C(C)=C\C=C\[C@H](C)[C@H](O)[C@@H](C)[C@@H](O)[C@@H](C)[C@H](OC(C)=O)[C@@H]1C [Rifampin, rifampin] | 29 µM | transient, statistically significant increase | 2.6 µM | 1.5 µM |
